Results as given in patent US20180243298A1, “TRPV3 MODULATORS” (AbbVie Inc., priority 2015, published 2018).
pIC50: −log10 of the molar value.

Target: T1, human TRPV3 (Homo sapiens, UniProt Q8NET8)
T1 construct: expressed in transfected cells; host or cells: HEK293
T1 sequence (Q8NET8 1-790): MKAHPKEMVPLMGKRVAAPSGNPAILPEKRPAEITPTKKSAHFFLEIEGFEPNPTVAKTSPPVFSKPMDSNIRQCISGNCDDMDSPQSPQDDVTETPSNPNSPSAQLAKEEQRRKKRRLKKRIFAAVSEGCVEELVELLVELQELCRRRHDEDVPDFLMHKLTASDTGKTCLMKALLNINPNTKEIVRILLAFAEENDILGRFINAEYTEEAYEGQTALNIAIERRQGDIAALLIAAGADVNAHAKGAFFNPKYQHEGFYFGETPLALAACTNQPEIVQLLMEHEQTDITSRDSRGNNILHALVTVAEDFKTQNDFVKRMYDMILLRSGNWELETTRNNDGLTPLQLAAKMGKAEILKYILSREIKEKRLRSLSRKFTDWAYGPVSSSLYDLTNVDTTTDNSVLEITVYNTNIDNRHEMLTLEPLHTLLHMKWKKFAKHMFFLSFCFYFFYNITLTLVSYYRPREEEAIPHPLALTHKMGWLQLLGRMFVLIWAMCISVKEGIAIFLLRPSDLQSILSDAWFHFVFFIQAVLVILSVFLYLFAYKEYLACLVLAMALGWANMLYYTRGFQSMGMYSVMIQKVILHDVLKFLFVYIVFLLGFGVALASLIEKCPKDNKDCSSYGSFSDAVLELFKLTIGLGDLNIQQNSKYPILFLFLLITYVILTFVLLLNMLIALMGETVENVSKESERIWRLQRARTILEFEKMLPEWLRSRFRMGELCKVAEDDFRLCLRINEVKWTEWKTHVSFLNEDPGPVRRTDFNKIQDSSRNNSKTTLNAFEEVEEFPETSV
Experiment: Calcium flux assay (FLIPR TETRA), recombinant HEK293 cells expressing TRPV3, 2-APB response
Assay type: cell-based
Conditions: 2-APB at its EC80
Summary of the method: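 HEK293 cells stably expressing human or mouse TRPV3, loaded with Calcium-4 dye for 90–120 min, read on FLIPR TETRA. Peak fluorescence rise over baseline expressed as percent of the maximal response to 2-APB at its EC80 without compound.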

pIC50	SMILES
7.00 to 7.30	COc1ncnc(OC)c1C(=O)Nc1nc(C(F)(F)F)c(-c2cnco2)s1 [Example 140, 4,6-dimethoxy-N-[5-(1,3-oxazol-5-yl)-4-(trifluoromethyl)-1,3-thiazol-2-yl]pyrimidine-5-carboxamide]
7.00 to 7.30	COc1ncnc(OC)c1C(=O)Nc1nc(C(F)(F)F)c(-c2ocnc2C)s1 [Example 141, 4,6-dimethoxy-N-[5-(4-methyl-1,3-oxazol-5-yl)-4-(trifluoromethyl)-1,3-thiazol-2-yl]pyrimidine-5-carboxamide]
> 7.30	COc1ncnc(OC)c1C(=O)Nc1nc(C(F)(F)F)c(-c2ccnc(C3(C#N)CC3)c2)s1 [Example 151, N-{5-[2-(1-cyanocyclopropyl)pyridin-4-yl]-4-(trifluoromethyl)-1,3-thiazol-2-yl}-4,6-dimethoxypyrimidine-5-carboxamide]
6.30 to 7.00	COc1ncnc(OC)c1C(=O)Nc1nc(C(F)(F)F)c(-c2ccnc(CC#N)c2)s1 [Example 152, N-{5-[2-(cyanomethyl)pyridin-4-yl]-4-(trifluoromethyl)-1,3-thiazol-2-yl}-4,6-dimethoxypyrimidine-5-carboxamide]
> 7.30	COc1ncnc(OC)c1C(=O)Nc1nc(C(F)(F)F)c(-c2cccc(F)n2)s1 [Example 153, N-[5-(6-fluoropyridin-2-yl)-4-(trifluoromethyl)-1,3-thiazol-2-yl]-4,6-dimethoxypyrimidine-5-carboxamide]
7.00 to 7.30	COc1ncnc(OC)c1C(=O)Nc1nc(C(F)(F)F)c(-c2cccc(C3(C#N)COC3)n2)s1 [Example 154, N-{5-[6-(3-cyanooxetan-3-yl)pyridin-2-yl]-4-(trifluoromethyl)-1,3-thiazol-2-yl}-4,6-dimethoxypyrimidine-5-carboxamide]
6.30 to 7.00	COc1ncnc(OC)c1C(=O)Nc1nc(C(F)(F)F)c(-c2cccc(CC#N)n2)s1 [Example 155, N-{5-[6-(cyanomethyl)pyridin-2-yl]-4-(trifluoromethyl)-1,3-thiazol-2-yl}-4,6-dimethoxypyrimidine-5-carboxamide]
7.00 to 7.30	COc1ncnc(OC)c1C(=O)Nc1nc(C(F)(F)F)c(-c2ccc(C3(C#N)CC3)cn2)s1 [Example 157, N-{5-[5-(1-cyanocyclopropyl)pyridin-2-yl]-4-(trifluoromethyl)-1,3-thiazol-2-yl}-4,6-dimethoxypyrimidine-5-carboxamide]
> 7.30	COc1ncnc(OC)c1C(=O)Nc1nc(C(F)(F)F)c(-c2ccc(C(C)(C)C#N)cn2)s1 [Example 158, N-{5-[5-(2-cyanopropan-2-yl)pyridin-2-yl]-4-(trifluoromethyl)-1,3-thiazol-2-yl}-4,6-dimethoxypyrimidine-5-carboxamide]

The next lines start with the compound.

SMILES	pIC50
COc1ncnc(OC)c1C(=O)Nc1nc(C(F)(F)F)c(/C(=N/O)c2ccc(F)cn2)s1 [Example 132, N-{5-[(E)-(5-fluoropyridin-2-yl)(hydroxyimino)methyl]-4-(trifluoromethyl)-1,3-thiazol-2-yl}-4,6-dimethoxypyrimidine-5-carboxamide]	> 7.30
COc1ncnc(OC)c1C(=O)Nc1nc(C(F)(F)F)c(C(C)=O)s1 [Example 133, N-[5-acetyl-4-(trifluoromethyl)-1,3-thiazol-2-yl]-4,6-dimethoxypyrimidine-5-carboxamide]	6.30 to 7.00
COc1ncnc(OC)c1C(=O)Nc1nc(C(F)(F)F)c(/C(C)=N/O)s1 [Example 134, N-{5-[(1E)-N-hydroxyethanimidoyl]-4-(trifluoromethyl)-1,3-thiazol-2-yl}-4,6-dimethoxypyrimidine-5-carboxamide]	6.30 to 7.00
CO/N=C(\C)c1sc(NC(=O)c2c(OC)ncnc2OC)nc1C(F)(F)F [Example 135, 4,6-dimethoxy-N-{5-[(1E)-N-methoxyethanimidoyl]-4-(trifluoromethyl)-1,3-thiazol-2-yl}pyrimidine-5-carboxamide]	> 7.30
CO/N=C(/C)c1sc(NC(=O)c2c(OC)ncnc2OC)nc1C(F)(F)F [Example 136, 4,6-dimethoxy-N-{5-[(1Z)—N-methoxyethanimidoyl]-4-(trifluoromethyl)-1,3-thiazol-2-yl}pyrimidine-5-carboxamide]	> 7.30
COc1ncnc(OC)c1C(=O)Nc1nc(C(F)(F)F)c(C2(C)OCCO2)s1 [Example 137, 4,6-dimethoxy-N-[5-(2-methyl-1,3-dioxolan-2-yl)-4-(trifluoromethyl)-1,3-thiazol-2-yl]pyrimidine-5-carboxamide]	7.00 to 7.30
COc1ncnc(OC)c1C(=O)Nc1nc(C(F)(F)F)c(C2OCCO2)s1 [Example 138, N-[5-(1,3-dioxolan-2-yl)-4-(trifluoromethyl)-1,3-thiazol-2-yl]-4,6-dimethoxypyrimidine-5-carboxamide]	6.30 to 7.00
COc1ncnc(OC)c1C(=O)Nc1nc(C(F)(F)F)c(C2OCCCO2)s1 [Example 139, N-[5-(1,3-dioxan-2-yl)-4-(trifluoromethyl)-1,3-thiazol-2-yl]-4,6-dimethoxypyrimidine-5-carboxamide]	6.30 to 7.00
CCn1nccc1-c1sc(NC(=O)c2c(OC)ncnc2OC)nc1C(F)(F)F [Example 142, N-[5-(1-ethyl-1H-pyrazol-5-yl)-4-(trifluoromethyl)-1,3-thiazol-2-yl]-4,6-dimethoxypyrimidine-5-carboxamide]	6.30 to 7.00
COc1ncnc(OC)c1C(=O)Nc1nc(C(F)(F)F)c(C2=CCCO2)s1 [Example 143, N-[5-(4,5-dihydrofuran-2-yl)-4-(trifluoromethyl)-1,3-thiazol-2-yl]-4,6-dimethoxypyrimidine-5-carboxamide]	> 7.30
COc1ncnc(OC)c1C(=O)Nc1nc(C(F)(F)F)c(C2CCCO2)s1 (stereo not shown) [Example 144, 4,6-dimethoxy-N-[5-(tetrahydrofuran-2-yl)-4-(trifluoromethyl)-1,3-thiazol-2-yl]pyrimidine-5-carboxamide]	7.00 to 7.30
COc1ncnc(OC)c1C(=O)Nc1nc(C(F)(F)F)c(C2=COCC2)s1 [Example 145, N-(5-(4,5-dihydrofuran-3-yl)-4-(trifluoromethyl)thiazol-2-yl)-4,6-dimethoxypyrimidine-5-carboxamide]	> 7.30
COc1ncnc(OC)c1C(=O)Nc1nc(C(F)(F)F)c(C2CCOC2)s1 (stereo not shown) [Example 146, 4,6-dimethoxy-N-[5-(tetrahydrofuran-3-yl)-4-(trifluoromethyl)-1,3-thiazol-2-yl]pyrimidine-5-carboxamide]	6.30 to 7.00
COc1ncnc(OC)c1C(=O)Nc1nc(C(F)(F)F)c(C2=COCCC2)s1 [Example 147, N-[5-(3,4-dihydro-2H-pyran-5-yl)-4-(trifluoromethyl)-1,3-thiazol-2-yl]-4,6-dimethoxypyrimidine-5-carboxamide]	7.00 to 7.30
COc1ncnc(OC)c1C(=O)Nc1nc(C(F)(F)F)c(C2CCCOC2)s1 (stereo not shown) [Example 148, 4,6-dimethoxy-N-[5-(tetrahydro-2H-pyran-3-yl)-4-(trifluoromethyl)-1,3-thiazol-2-yl]pyrimidine-5-carboxamide]	7.00 to 7.30
COc1ncnc(OC)c1C(=O)Nc1nc(C(F)(F)F)c(-c2cncc(OC(C)C)c2)s1 [Example 156, 4,6-dimethoxy-N-{5-[5-(propan-2-yloxy)pyridin-3-yl]-4-(trifluoromethyl)-1,3-thiazol-2-yl}pyrimidine-5-carboxamide]	> 7.30
